Test results published in patent US10913753B2, “Thienopyridine carboxamides as ubiquitin-specific protease inhibitors” (FORMA Therapeutics, Inc., priority 2016, dated 2021).

Legend:
USP25 = USP25 (Homo sapiens (Human), UniProt Q9UHP3); assay: Ubiquitin-Rhodamine 110 Assay for USP25 Activity; assay type: biochemical
Description: The assay was performed in a final volume of 9 μL in assay buffer containing 20 mM Tris-HCl (pH 8.0, (1M Tris-HC1, pH 8.0 solution; Corning 46-031-CM)), 3 mM BME (2-Mercaptoethanol; Sigma 63689-25ML-F), 0.03% BGG (0.22 μM filtered, Sigma, G7516-25G), and 0.01% Triton X-100 (Sigma, T9284-10L). Nanoliter quantities of 10-point, 3-fold serial dilution in DMSO was pre-dispensed into 1536 assay plates (Corning, #3724BC) for a final test concentration of 25 μM to 1.3 nM, top to lowest dose, respectively. Enzyme USP25, construct USP25-His6, (Boston Biochem E-546). Concentration and incubation times were optimized for the maximal signal-to-background while maintaining initial velocity conditions at a fixed substrate concentration. The final concentration of the enzyme in the assay was 75 pM. […] 3 μL of 2× enzyme was added to assay plates (pre-stamped with compound) preincubated with […] for 30 minutes and then 3 μL of 2× Ub-Rh110 was added to assay plates. Plates were incubated for 45 minutes at room temperature before addition of 3 μL of stop solution (final concentration of 10 mM citric acid (Sigma, 251275-500G)). Fluorescence was read on the Envision (Excitation at 485 nm and Emission at 535 nm; Perkin Elmer) or on the PheraSTAR (Excitation at 485 nm and Emission at 535 nm; BMG Labtech).
(§1) For both the USP28 and USP25 assay formats, data were reported as percent inhibition compared with control wells based on the following equation: % inh=1-((FLU-AveLow)/(AveHigh−AveLow)) where FLU=measured Fluorescence, AveLow=average Fluorescence of no enzyme control (n=16), and AveHigh=average Fluorescence of DMSO control (n=16). IC50 values were determined by curve fitting of the standard 4 parameter logistic fitting algorithm included in the Activity Base software package: IDBS XE Designer Model205. Data is fitted using the Levenburg Marquardt algorithm.

USP28 = USP28 (Homo sapiens (Human), UniProt Q96RU2); assay: Ubiquitin-Rhodamine 110 Assay for USP28 Activity; assay type: biochemical
Description: The assay was performed in a final volume of 20 μL in assay buffer containing 20 mM Tris-HCl (pH 8.0, (1M Tris-HCl, pH 8.0 solution; Corning 46-031-CM)), 2 mM CaCl2 (1M Calcium Chloride solution; Sigma #21114) 2 mM BME (2-Mercaptoethanol; Sigma 63689-25ML -F), 0.01% Prionex (0.22 μM filtered, Sigma #G-0411), and 0.01% Triton X-100. Stock compound solutions were stored at −20° C. as 10 mM in DMSO. Up to 1 month prior to the assay, 2 mM test compounds were pre-dispensed into assay plates (Black, low volume; Corning #3820) and frozen at −20° C. Prestamped assay plates were allowed to come to room temperature on the day of the assay. For the screen, 100 nL of 2 mM was pre-dispensed for a final screening concentration of 10 μM (DMSO(fc)=0.5%). […] Plates were incubated stacked for 90 minutes at room temperature before fluorescence was read on the Envision (Excitation at 485 nm and Emission at 535 nm; Perkin Elmer) or on the PheraSTAR (Excitation at 485 nm and Emission at 535 nm; BMG Labtech).
For follow-up studies, the assay was performed in a final volume of 15 μL in assay buffer containing 20 mM Tris-HCl (pH 8.0, (1M Tris-HCl, pH 8.0 solution; Corning 46-031-CM)), 3 mM BME (2-Mercaptoethanol; Sigma 63689-25ML-F), 0.03% BGG (0.22 μM filtered, Sigma, G7516-25G), and 0.01% Triton X-100 (Sigma, T9284-10L). Nanoliter quantities of either an 8-point or 10-point, 3-fold serial dilution in DMSO was pre-dispensed into assay plates (Perkin Elmer, ProxiPlate-384 F Plus) for a final test concentration of either 25 μM to 11 nM or 25 μM to 1.3 nM, respectively. Enzyme USP28, construct USP28 (USP28-5(1-1077)-TEV-6*His; LifeSensors) concentration and incubation times were optimized for the maximal signal-to -background while maintaining initial velocity conditions at a fixed substrate concentration. The final concentration of the enzyme in the assay was 75 pM. […] 5 μL of 2× enzyme was added to assay plates (pre-stamped with compound) preincubated with USP28 for 30 minutes and then 5 μL of 2× Ub-Rh110 was added to assay plates. Plates were incubated stacked for 20 min at room temperature before 5 μL of stop solution was added (final concentration of 10 mM citric acid (Sigma, 251275-500G)). Fluorescence was read on the Envision (Excitation at 485 nm and Emission at 535 nm; Perkin Elmer) or on the PheraSTAR (Excitation at 485 nm and Emission at 535 nm; BMG Labtech).
as §1

Chain of USP25 (Q9UHP3 whole entry): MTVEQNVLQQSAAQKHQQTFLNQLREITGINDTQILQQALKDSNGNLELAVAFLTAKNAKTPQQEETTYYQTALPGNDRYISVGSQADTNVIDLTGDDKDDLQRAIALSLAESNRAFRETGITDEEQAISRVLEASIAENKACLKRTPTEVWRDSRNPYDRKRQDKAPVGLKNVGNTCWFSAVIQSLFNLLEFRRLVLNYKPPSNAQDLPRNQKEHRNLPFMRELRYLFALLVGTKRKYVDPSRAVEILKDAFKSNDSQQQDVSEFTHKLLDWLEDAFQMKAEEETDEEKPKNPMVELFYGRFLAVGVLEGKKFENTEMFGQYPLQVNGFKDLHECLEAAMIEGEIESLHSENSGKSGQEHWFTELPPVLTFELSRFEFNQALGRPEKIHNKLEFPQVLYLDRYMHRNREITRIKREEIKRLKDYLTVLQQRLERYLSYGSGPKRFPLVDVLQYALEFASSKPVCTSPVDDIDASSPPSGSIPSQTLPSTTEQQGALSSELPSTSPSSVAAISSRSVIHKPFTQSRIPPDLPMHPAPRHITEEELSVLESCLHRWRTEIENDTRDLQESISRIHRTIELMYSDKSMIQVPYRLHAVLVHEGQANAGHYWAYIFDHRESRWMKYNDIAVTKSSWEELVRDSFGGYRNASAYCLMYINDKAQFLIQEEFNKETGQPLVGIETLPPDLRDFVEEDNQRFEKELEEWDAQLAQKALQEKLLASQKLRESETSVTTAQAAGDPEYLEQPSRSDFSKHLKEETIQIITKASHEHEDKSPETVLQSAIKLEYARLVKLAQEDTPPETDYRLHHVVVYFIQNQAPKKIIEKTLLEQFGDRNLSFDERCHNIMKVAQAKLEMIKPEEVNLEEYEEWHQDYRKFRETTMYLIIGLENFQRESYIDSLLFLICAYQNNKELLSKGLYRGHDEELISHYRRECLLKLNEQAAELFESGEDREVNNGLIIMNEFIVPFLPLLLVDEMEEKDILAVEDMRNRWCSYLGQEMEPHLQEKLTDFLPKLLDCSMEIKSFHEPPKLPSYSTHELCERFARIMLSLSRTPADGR
Chain of USP28 (Q96RU2 whole entry): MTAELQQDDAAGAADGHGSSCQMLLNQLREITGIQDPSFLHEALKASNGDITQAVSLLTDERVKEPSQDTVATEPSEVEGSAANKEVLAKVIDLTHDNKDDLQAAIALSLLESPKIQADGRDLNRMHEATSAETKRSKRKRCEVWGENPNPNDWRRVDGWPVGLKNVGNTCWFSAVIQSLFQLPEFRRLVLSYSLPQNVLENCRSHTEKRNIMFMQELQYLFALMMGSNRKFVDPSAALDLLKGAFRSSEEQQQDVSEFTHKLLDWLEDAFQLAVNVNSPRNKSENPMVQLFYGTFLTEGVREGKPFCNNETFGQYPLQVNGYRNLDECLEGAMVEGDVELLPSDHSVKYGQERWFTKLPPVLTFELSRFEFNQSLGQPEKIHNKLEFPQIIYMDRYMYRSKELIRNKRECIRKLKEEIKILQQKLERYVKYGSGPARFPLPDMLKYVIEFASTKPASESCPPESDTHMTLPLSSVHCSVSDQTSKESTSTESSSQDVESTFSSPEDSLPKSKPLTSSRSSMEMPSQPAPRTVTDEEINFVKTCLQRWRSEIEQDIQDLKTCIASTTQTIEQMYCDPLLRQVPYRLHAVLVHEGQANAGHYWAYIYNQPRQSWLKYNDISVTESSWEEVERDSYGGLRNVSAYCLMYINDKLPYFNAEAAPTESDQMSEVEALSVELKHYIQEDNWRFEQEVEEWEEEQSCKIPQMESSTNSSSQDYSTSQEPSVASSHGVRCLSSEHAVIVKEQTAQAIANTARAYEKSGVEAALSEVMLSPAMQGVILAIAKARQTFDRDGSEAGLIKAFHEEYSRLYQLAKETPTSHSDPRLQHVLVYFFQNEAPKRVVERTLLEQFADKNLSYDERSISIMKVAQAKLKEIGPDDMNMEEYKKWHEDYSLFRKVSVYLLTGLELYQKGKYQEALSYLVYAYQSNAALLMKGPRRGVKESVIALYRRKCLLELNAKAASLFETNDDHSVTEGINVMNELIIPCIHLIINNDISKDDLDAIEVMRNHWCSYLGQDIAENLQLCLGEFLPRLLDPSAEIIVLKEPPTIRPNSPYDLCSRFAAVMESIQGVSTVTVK

Cc1ccc2c(N)c(C(=O)NCCc3ccc(C4CC5CCC(C4)N5)cc3)sc2n1 (single isomer, unassigned) [Example I-171, N-(4-(8-azabicyclo[3.2.1]octan-3-yl)phenethyl)-3-amino-6-methylthieno[2,3-b]pyridine-2-carboxamide]
IC50 (USP25): 200 to 2000 nM | IC50 (USP28): 200 to 2000 nM

Cc1ccc2c(N)c(C(=O)NCCc3ccc([C@H]4CCNC4)cc3)sc2n1 (single isomer, unassigned) [Example I-180]
IC50 (USP25): 200 to 2000 nM | IC50 (USP28): < 200 nM

Cc1nc2sc(C(=O)NCCc3ccc(N4CC5CCC(C4)N5)c(C#N)c3)c(N)c2cc1F [Compound I-71]
IC50 (USP25): 200 to 2000 nM | IC50 (USP28): 200 to 2000 nM

CNc1ccc2c(N)c(C(=O)NCCc3ccc(N4CCN(C)CC4)cc3)sc2n1 [Example I-195]
IC50 (USP25): 200 to 2000 nM | IC50 (USP28): < 200 nM

Cc1cc(C(F)(F)F)c2c(N)c(C(=O)NCCc3ccc(N4CCNCC4)cc3)sc2n1 [Compound I-204]
IC50 (USP25): < 200 nM | IC50 (USP28): 200 to 2000 nM

Cc1ccc2c(N)c(C(=O)NCCc3cc(F)c(N4CCN[C@@H](C)C4)cc3F)sc2n1 [Compound I-210]
IC50 (USP25): 2000 to 10000 nM | IC50 (USP28): 200 to 2000 nM

Cc1ccc2c(N)c(C(=O)NCCc3ccc(C4CC5CCC(C4)N5)cc3)sc2n1 (single isomer, unassigned) [Example I-172, N-(4-(8-azabicyclo[3.2.1]octan-3-yl)phenethyl)-3-amino-6-methylthieno[2,3-b]pyridine-2-carboxamide]
IC50 (USP25): < 200 nM | IC50 (USP28): < 200 nM

CN[C@H]1CN(c2cc(F)c(CCNC(=O)c3sc4nc(C)ccc4c3N)cc2F)C[C@H]1F (single isomer, unassigned) [Example I-212]
IC50 (USP25): 200 to 2000 nM | IC50 (USP28): 200 to 2000 nM

Cc1ccc2c(N)c(C(=O)NC[C@@H](C)c3ccc(N4CC5CCC(C4)N5)c(C#N)c3)sc2n1 (single isomer, unassigned) [Example I-109]
IC50 (USP25): 2000 to 10000 nM | IC50 (USP28): 200 to 2000 nM

Cc1ccc2c(N)c(C(=O)NCCc3cc(F)c(N4C[C@H]5CCN[C@H]5C4)cc3F)sc2n1 [Example I-96]
IC50 (USP25): 200 to 2000 nM | IC50 (USP28): < 200 nM

CN[C@@H]1CN(c2cc(F)c(CCNC(=O)c3sc4nc(C)ccc4c3N)cc2F)C[C@@H]1F (single isomer, unassigned) [Example I-211]
IC50 (USP25): 2000 to 10000 nM | IC50 (USP28): 200 to 2000 nM

Nc1c(C(=O)NCCc2cc(F)c(N3CC4CCC(C3)N4)cc2F)sc2ncc(F)cc12 [Compound I-69]
IC50 (USP25): 200 to 2000 nM | IC50 (USP28): < 200 nM

COc1nc2sc(C(=O)NCCc3cc(F)c(N4CCNCC4)cc3F)c(N)c2cc1F [Compound I-68]
IC50 (USP25): 2000 to 10000 nM | IC50 (USP28): 200 to 2000 nM

Cc1ccc2c(N)c(C(=O)NCCc3ccc(N4CCNCC4)cc3)sc2n1 [Example I-1, 3-Amino-6-methyl-N-(4-(piperazin-1-yl)phenethyl)thieno[2,3-b]pyridine-2-carboxamide]
IC50 (USP25): 200 to 2000 nM | IC50 (USP28): 200 to 2000 nM

COc1ccc2c(N)c(C(=O)NCCc3ccc(N4CCNCC4)cc3)sc2n1 [Example I-190, 3-Amino-6-methoxy-N-(4-(piperazin-1-yl)phenethyl)thieno[2,3-b]pyridine-2-carboxamide]
IC50 (USP25): 200 to 2000 nM | IC50 (USP28): 200 to 2000 nM

Cc1ccc2c(N)c(C(=O)NCCc3ccc4c(c3)C[C@@H](C(=O)O)C4)sc2n1 [Example I-177]
IC50 (USP25): 200 to 2000 nM | IC50 (USP28): 200 to 2000 nM

Cc1ccc2c(N)c(C(=O)NCCc3ccc(N4CCN[C@@H](C)C4)cc3)sc2n1 [Example I-121, (S)-3-amino-6-methyl-N-(4-(3-methylpiperazin-1-yl)phenethyl)thieno[2,3-b]pyridine-2-carboxamide]
IC50 (USP25): 200 to 2000 nM | IC50 (USP28): 200 to 2000 nM

Nc1c(C(=O)NCCc2ccc(N3CCNCC3)cc2)sc2nc(C(F)(F)F)ccc12 [Compound I-33]
IC50 (USP25): 2000 to 10000 nM | IC50 (USP28): 2000 to 10000 nM
